Our source for the Activity values is ChEMBL document CHEMBL6121056, “Aculeapyridones A-Q, Pyranopyridone Alkaloids with Protective Effects against Acetaminophen-Induced Acute Liver Injury Discovered from a Coculture of Aspergillus aculeatinus WHUF0198 and a Penicillium sp” (2025).

Type in all cases: functional, Mus musculus
The subject of assay [1] is AML12. Briefly: Protection against acetaminophen-induced acute liver injury in AML12 cells at 10 uM incubated for 12 hrs by MTT assay relative to control. On the technique in general: Tetrazolium dyes change colour on reduction, which living cells bring about.
For assay [2], the system named is AML12. Description: Protection against acetaminophen-induced acute liver injury in AML12 cells at 5 uM incubated for 12 hrs by MTT assay relative to control.
In assay [3] the test system is AML12. Description: Cytoprotective activity against acetaminophen-induced acute liver injury in AML12 cells assessed as reduction in ALT level at 5 uM measured after 12 hrs relative to control. On the set-up: scale not given: the % may be the effect or the level left.

The structures appear in SMILES notation.

As for `CC[C@@H](C)/C=C/C=C/C=C(\C)[C@@H]1Oc2c(-c3ccc(O)cc3)c[nH]c(=O)c2C(=O)[C@H]1C`, the Activity was -50% in the assay on AML12 [1] and -10% in the assay on AML12 [2].

On to `CC[C@@H](C)/C=C/C=C/C=C(\C)[C@@H]1Oc2cc[nH]c(=O)c2[C@@H](O)[C@H]1C`, for which the Activity is on record as 29% in the assay with AML12 [3], -6.5% in the assay with AML12 [1] and 94% in the assay on AML12 [2].

Regarding `CO[C@@H]1c2c(cc[nH]c2=O)O[C@@H](/C(C)=C/C=C/C=C/[C@H](CO)CCO)[C@@H]1C`, the values for the Activity with AML12 [3], in the assay with AML12 [1] and in the assay with AML12 [2] were 99%, 59% and 20%, respectively.

As for `CC[C@H](/C=C/C=C/C=C(\C)[C@@H]1Oc2ccn(OC)c(=O)c2[C@@H](O)[C@H]1C)C(=O)O`, the values for the Activity in the assay on AML12 [3], in the assay with AML12 [1] and in the assay on AML12 [2] were 52%, -14% and 74%, respectively.

Take `CC[C@H](/C=C/C=C/C=C(\C)[C@@H]1Oc2ccn(OC)c(=O)c2[C@@H](O)[C@H]1C)COC=O`: the figures for the Activity in the assay on AML12 [3], with AML12 [1] and in the assay on AML12 [2] were 79%, 21% and 144%, respectively.

Consider `COn1ccc2c(c1=O)[C@@H](O)[C@@H](C)[C@H](/C(C)=C/C=C/C=C/[C@H](C)CC(=O)O)O2`, for which the Activity with AML12 [3] is 115%; in the assay with AML12 [1] it was 50%; in the assay on AML12 [2], 132%.

On to `CC[C@H](/C=C/C=C/C=C(\C)[C@@H]1Oc2cc[nH]c(=O)c2[C@@H](OC)[C@H]1C)CO`, for which the Activity is 82% with AML12 [3], 53% in the assay on AML12 [1] and 125% in the assay with AML12 [2].

In the case of `CC(=O)N[C@@H](CS)C(=O)O` [ACETYLCYSTEINE], the Activity is 45% with AML12 [3], 165% in the assay on AML12 [1] and 150% in the assay on AML12 [2].

`CC[C@@H](C)/C=C/C=C/C=C(\C)[C@@H]1Oc2cc[nH]c(=O)c2[C@@H](OC)[C@H]1C`: the Activity was determined as 54% with AML12 [3], 192% with AML12 [1] and 30% with AML12 [2].

On to `CC[C@H](/C=C/C=C/C=C(\C)[C@@H]1Oc2ccn(OC)c(=O)c2[C@@H](O)[C@H]1C)CO`, for which the Activity in the assay with AML12 [3] was 71%; with AML12 [1] it was 64%; in the assay on AML12 [2] it was 61%.

For the compound `CO[C@@H]1c2c(cc[nH]c2=O)O[C@@H](/C(C)=C/C=C/C=C/[C@H](C)CC(=O)O)[C@@H]1C`, the results for the Activity in the assay on AML12 [3], in the assay with AML12 [1] and in the assay with AML12 [2] were 86%, 18% and 120%, respectively.

For `CC[C@H](/C=C/C=C/C=C(\C)[C@@H]1Oc2cc[nH]c(=O)c2[C@@H](O)[C@H]1C)C(=O)O`, the Activity in the assay on AML12 [3] is 118%; in the assay on AML12 [1], 56%; in the assay with AML12 [2], 7%.

For the compound `CC[C@H](/C=C/C=C/C=C(\C)[C@@H]1Oc2cc[nH]c(=O)c2[C@@H](O)[C@H]1C)CO`, the Activity was 97% in the assay with AML12 [3], 100% with AML12 [1] and 17% with AML12 [2].

Turning to `CC[C@@H](/C=C/C=C/C=C(\C)[C@@H]1Oc2cc[nH]c(=O)c2[C@@H](OC)[C@H]1C)C(=O)O`, the Activity in the assay with AML12 [3] was 96%; in the assay on AML12 [1], -43%; in the assay on AML12 [2] it was 164%.

With `C\C(=C/C=C/C=C/C(C)CC(=O)O)[C@@H]1Oc2cc[nH]c(=O)c2[C@@H](O)C1C` (stereo partly specified), the Activity was found to be 74% in the assay with AML12 [3], 26% with AML12 [1] and 66% with AML12 [2].

`CC[C@H](/C=C/C=C/C=C(\C)[C@@H]1Oc2cc[nH]c(=O)c2[C@@H](OC)[C@H]1C)COC=O`: the Activity with AML12 [1] is -32%; in the assay on AML12 [2] it was 15%.
